Earlier results as cited in patent publication US9750251B2, “Liquid herbicidal preparations” (BAYER INTELLECTUAL PROPERTY GMBH, priority 2008, dated 2017).
Values after ≈ are worked out from the molar mass of the structure shown.

Details: at 25° C.

CCOC1Oc2ccc(OS(C)(=O)=O)cc2C1(C)C (racemic) [ethofumesate]
water solubility: 50 µg/mL (≈ 175 µM)
